Key:
Assay in all cases: NCI anticancer screen, SRB assay, 48 h
Format in all cases: cell-based, human
OVCAR-8 (ovarian) = system: OVCAR-8 (ovarian)
Method in brief: (§1)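 Sulforhodamine B protein assay read cell growth after 48 h of continuous compound exposure. Dose-response curves per cell line used at least five 10-fold-diluted concentrations, within a panel of fifty-three human lines from nine tumour types.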

NCI/ADR-RES (ovarian) = system: NCI/ADR-RES (ovarian)
Method in brief: as §1

[1] = system: NCI-H322M (non-small cell lung)
Method in brief: as §1

U251 (CNS) = system: U251 (CNS)
Method in brief: as §1

CAKI-1 (renal) = system: CAKI-1 (renal)
Method in brief: as §1

SNB-19 (CNS) = system: SNB-19 (CNS)
Method in brief: as §1

UO-31 (renal) = system: UO-31 (renal)
Method in brief: as §1

SW-620 (colon) = system: SW-620 (colon)
Method in brief: as §1

[2] = system: NCI-H522 (non-small cell lung)
Method in brief: as §1

UACC-62 (melanoma) = system: UACC-62 (melanoma)
Method in brief: as §1

UACC-257 (melanoma) = system: UACC-257 (melanoma)
Method in brief: as §1

MCF7 (breast) = system: MCF7 (breast)
Method in brief: as §1

MDA-MB-435 (melanoma) = system: MDA-MB-435 (melanoma)
Method in brief: as §1

SK-MEL-5 (melanoma) = system: SK-MEL-5 (melanoma)
Method in brief: as §1

[3] = system: HOP-62 (non-small cell lung)
Method in brief: as §1

SF-268 (CNS) = system: SF-268 (CNS)
Method in brief: as §1

[4] = system: K-562 (leukemia cell line)
Method in brief: as §1

OVCAR-5 (ovarian) = system: OVCAR-5 (ovarian)
Method in brief: as §1

HCT-116 (colon) = system: HCT-116 (colon)
Method in brief: as §1

TK-10 (renal) = system: TK-10 (renal)
Method in brief: as §1

SK-OV-3 (ovarian) = system: SK-OV-3 (ovarian)
Method in brief: as §1

[5] = system: EKVX (non-small cell lung)
Method in brief: as §1

[6] = system: RPMI-8226 (leukemia cell line)
Method in brief: as §1

OVCAR-4 (ovarian) = system: OVCAR-4 (ovarian)
Method in brief: as §1

MALME-3M (melanoma) = conditions: MALME-3M
Method in brief: as §1

RXF 393 (renal) = system: RXF 393 (renal)
Method in brief: as §1

[7] = system: NCI-H226 (non-small cell lung)
Method in brief: as §1

786-0 (renal) = system: 786-0 (renal)
Method in brief: as §1

HCT-15 (colon) = system: HCT-15 (colon)
Method in brief: as §1

[8] = 48 h exposure, SRB, read-out: GI50

COc1ccc(-c2cn(-c3cccc(C(=O)/C=C/c4cc(OC)c(OC)c(OC)c4)c3)c(=O)[nH]2)cc1 [5b, 4-(4-methoxyphenyl)-1-3-[(E)-3-(3,4,5-trimethoxyphenyl)-2-propenoyl]phenyl-2,3-dihydro-1H-2-imidazolone]
pGI50 (-log of molar concentration causing 50% inhibition of net cell growth) (OVCAR-8 (ovarian)): 5.60 | GI50 (OVCAR-8 (ovarian); [8]): 2.53 µM | pGI50 (-log of molar concentration causing 50% inhibition of net cell growth) (NCI/ADR-RES (ovarian); NCI/ADR-RES): 5.77 | GI50 (NCI/ADR-RES (ovarian); NCl/ADR-RES, 48 h exposure, SRB, read-out: GI50): 1.7 µM | pGI50 (-log of molar concentration causing 50% inhibition of net cell growth) [1]: 5.58 | GI50 [1, 8]: 2.66 µM | pGI50 (-log of molar concentration causing 50% inhibition of net cell growth) (U251 (CNS)): 6.06 | GI50 (U251 (CNS); [8]): 0.88 µM | pGI50 (-log of molar concentration causing 50% inhibition of net cell growth) (CAKI-1 (renal)): 5.52 | GI50 (CAKI-1 (renal); [8]): 3.05 µM | pGI50 (-log of molar concentration causing 50% inhibition of net cell growth) (SNB-19 (CNS)): 5.36 | GI50 (SNB-19 (CNS); [8]): 4.38 µM | pGI50 (-log of molar concentration causing 50% inhibition of net cell growth) (UO-31 (renal)): 5.72 | GI50 (UO-31 (renal); [8]): 1.91 µM | pGI50 (-log of molar concentration causing 50% inhibition of net cell growth) (SW-620 (colon)): 6.35 | GI50 (SW-620 (colon); [8]): 0.45 µM | pGI50 (-log of molar concentration causing 50% inhibition of net cell growth) [2]: 5.73 | GI50 [2, 8]: 1.85 µM | pGI50 (-log of molar concentration causing 50% inhibition of net cell growth) (UACC-62 (melanoma)): 5.69 | GI50 (UACC-62 (melanoma); [8]): 2.06 µM | pGI50 (-log of molar concentration causing 50% inhibition of net cell growth) (UACC-257 (melanoma)): 5.52 | GI50 (UACC-257 (melanoma); [8]): 3.04 µM | pGI50 (-log of molar concentration causing 50% inhibition of net cell growth) (MCF7 (breast)): 6.36 | GI50 (MCF7 (breast); [8]): 0.44 µM | pGI50 (-log of molar concentration causing 50% inhibition of net cell growth) (MDA-MB-435 (melanoma)): 5.73 | GI50 (MDA-MB-435 (melanoma); [8]): 1.86 µM | pGI50 (-log of molar concentration causing 50% inhibition of net cell growth) (SK-MEL-5 (melanoma)): 5.69 | GI50 (SK-MEL-5 (melanoma); [8]): 2.03 µM | pGI50 (-log of molar concentration causing 50% inhibition of net cell growth) [3]: 5.23 | GI50 [3, 8]: 5.91 µM | pGI50 (-log of molar concentration causing 50% inhibition of net cell growth) (SF-268 (CNS)): 5.49 | GI50 (SF-268 (CNS); [8]): 3.21 µM | pGI50 (-log of molar concentration causing 50% inhibition of net cell growth) [4]: 5.90 | GI50 [4, 8]: 1.27 µM | pGI50 (-log of molar concentration causing 50% inhibition of net cell growth) (OVCAR-5 (ovarian)): 5.58 | GI50 (OVCAR-5 (ovarian); [8]): 2.64 µM | pGI50 (-log of molar concentration causing 50% inhibition of net cell growth) (HCT-116 (colon)): 6.43 | GI50 (HCT-116 (colon); [8]): 0.37 µM | pGI50 (-log of molar concentration causing 50% inhibition of net cell growth) (TK-10 (renal)): 5.52 | GI50 (TK-10 (renal); [8]): 3.04 µM | pGI50 (-log of molar concentration causing 50% inhibition of net cell growth) (SK-OV-3 (ovarian)): 5.34 | GI50 (SK-OV-3 (ovarian); [8]): 4.6 µM | pGI50 (-log of molar concentration causing 50% inhibition of net cell growth) [5]: 5.38 | GI50 [5, 8]: 4.2 µM | pGI50 (-log of molar concentration causing 50% inhibition of net cell growth) [6]: 6.04 | GI50 [6, 8]: 0.92 µM | pGI50 (-log of molar concentration causing 50% inhibition of net cell growth) (OVCAR-4 (ovarian)): 5.45 | GI50 (OVCAR-4 (ovarian); [8]): 3.57 µM | pGI50 (-log of molar concentration causing 50% inhibition of net cell growth) (MALME-3M (melanoma)): 5.75 | GI50 (MALME-3M (melanoma); [8]): 1.79 µM | GI50 (RXF 393 (renal); RXF 393, 48 h exposure, SRB, read-out: GI50): 1.92 µM | pGI50 (-log of molar concentration causing 50% inhibition of net cell growth) (RXF 393 (renal); RXF-393): 5.72 | pGI50 (-log of molar concentration causing 50% inhibition of net cell growth) [7]: 4.45 | GI50 [7, 8]: 35.2 µM | pGI50 (-log of molar concentration causing 50% inhibition of net cell growth) (786-0 (renal)): 5.79 | GI50 (786-0 (renal); [8]): 1.61 µM | pGI50 (-log of molar concentration causing 50% inhibition of net cell growth) (HCT-15 (colon)): 5.86 | GI50 (HCT-15 (colon); [8]): 1.38 µM
